Where a SMILES comes first, the peptide text is derived from it.
Tests used:
EAE mice = test: EAE mouse model, reduction of paralytic symptoms; assay type: in vivo
[1] = Amyloid fibril formation by thioflavin T (ThT) fluorescence; assay type: physicochemical; details: for pH dependent amyloid fibril formation (ThT staining): buffers pH 3 to pH 10, 37° C., fluorescence at 485 nm; for amyloid fibril formation (ThT staining), L- versus D-amino acids: 100 mM MES pH 7.4, 37° C.
Description: The relative amount of amyloid present in each solution was measured by combining solutions of the hexamers (200 mg 50 ml) dissolved in 100 mM MES pH 7.4 and 50 ml of a 1M buffer solution at the appropriate pH (glycine, pH 3; acetate, pH 4; citrate, pH 5; MES, pH 6; Tris, pH 7; Tris, pH 8; glycine, pH 9; bicarbonate, pH 10) and incubated at 37° C. ThT (10 ml of 10 mM solution) was added and the resultant emission fluorescence at 485 nm for each sample after excitation at 440 nm was measured using a SpectraMax 190 fluorescent microtiter plate reader.
The ability of each hexamer listed in Table 1 to form amyloid fibrils in aqueous buffers was examined. Each of the hexamers (200 mg 50 ml) was added to 100 ml of 100 mM MES pH 7.4 and combined with 50 ml of a 1M buffer solution at the appropriate pH (glycine, pH 3; acetate, pH 4; citrate, pH 5; MES, pH 6; Tris, pH 7; Tris, pH 8; glycine, pH 9; bicarbonate, pH 10) and incubated at 37° C. ThT (10 ml of 10 mM solution) was added and the resultant fluorescence at 485 nm from excitation at 440 nm was measured using a fluorescent plate reader. The peptides can be segregated into sets A-E: an anionic set forming fibrils at pH 3, pH 4, and pH 5 (A), a cationic group forming fibrils only at pH 10 (B), three cationic sequences that form amyloid fibrils at all pHs measured (C), a nonionizable set of sequences weakly binding ThT at all pHs (D), and a hydrophobic set of sequences that bind ThT at all pHs tested (E). Only a fraction of the peptides formed amyloid fibrils when dissolved in PBS pH 7.4, as measured by staining with thioflavin T (ThT). Their differential propensity to form amyloid fibrils was used to help segregate them into functional sets (Table 1).
With respect the experimental results depicted in FIG. 6: A) L- and D-tau 623-628 and L- and D-Aβ 37-42 (200 μg/50 μl) were each added to 100 μl of 100 mM MES pH 7.4 and incubated at 37° C. ThT (10 μl of 10 μM solution) was added and the resultant fluorescence at 485 nm from excitation at 440 nm was measured using a fluorescent plate reader. The levels of ThT were similar in both sets of hexapeptides. […] D) Groups of ten mice were injected daily intraperitoneally for 10 days with 1 μg of L-tau or D-tau hexapeptides beginning at onset of hindlimb weakness. PBS was injected in littermates as control. Bar represents the duration of the treatment. Values in graph represent mean+/−S.E.M. *p<0.05 for L-tau and ̂p<0.05 for D-tau by Mann-Whitney U test.

[2] = tested on: plasma cytokine levels (IL-6, IL-2, TGF-β, IL-17); test: Plasma cytokine levels in EAE mice (multiplex-bead-analysis of 26 cytokines); assay type: in vivo; details: 1 μg of Tau 623-628 or 10 μg of HspB1 daily for two days, bled 12 hours later
Description: EAE was induced by procedures previously described. See, Steinman, L. & Zamvil, S. S. How to successfully apply animal studies in experimental allergic encephalomyelitis to research on multiple sclerosis. Ann Neurol 60, 12-21, doi:10.1002/ana.20913 (2006). […] Sera from EAE mice were collected following two days of treatment with 10 μg HspB1 protein, 1 μg tau 623-628 (VQIVYK)(SEQ ID NO: 123), or PBS. Twenty-six cytokines were analyzed by multiplex-bead-analysis.
To determine whether a hexamer modulated the plasma cytokine levels equivalent to an intact small heat shock protein, groups of five mice were treated after the onset of hindlimb weakness with daily injections of either 1 μg of Tau 623-628 or 10 μg of HspB1 for two days and bled 12 hours later.

beta chain of insulin = molecular target: T1, beta chain of insulin (Homo sapiens, UniProt P01308); test: Inhibition of DTT induced aggregation of the beta chain of insulin (molecular chaperone function); assay type: biochemical; details: for molecular chaperone function (inhibition of insulin aggregation): pH 4 and pH 7.4; for inhibition of insulin aggregation, L- versus D-amino acids: FIG. 6b/6c; for inhibition of insulin aggregation: pH 7.4 and pH 5
T1 construct: DTT induced aggregation of the beta chain of insulin
T1 sequence (P01308 25-54 limits assumed): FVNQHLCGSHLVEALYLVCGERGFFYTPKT
Description: The capacity of the proteins and peptides to inhibit DTT induced aggregation of the beta chain of insulin was assayed using procedures described previously by several authors. See, for example, Hong, D. P. & Fink, A. L. Independent heterologous fibrillation of insulin and its B-chain peptide. Biochemistry 44, 16701-16709, doi:10.1021/bi051658y (2005). Also see, Hong, D. P., Ahmad, A. & Fink, A. L. Fibrillation of human insulin A and B chains. Biochemistry 45, 9342-9353, doi:10.1021/bi0604936 (2006). The aggregation was measured by the increase in absorption at 360 nm as a function of time over twenty minutes.
To determine whether the ThT staining observed in Experiment 4 (above) correlated with molecular chaperone function, each of the peptides was assayed for its ability to inhibit insulin aggregation. The effect of ThT on insulin aggregation was measured as a control. […] […] See, Nielsen, L. et al. Effect of environmental factors on the kinetics of insulin fibril formation: elucidation of the molecular mechanism. Biochemistry 40, 6036-6046, doi:bi002555c [pii] (2001).

[3] = mice, 1 μg peptide injected daily from onset of hindlimb weakness, PBS control

GYVIIK [serum amyloid P 213-218]
reduction of the paralytic symptoms of EAE (EAE mice; [3]): therapeutic
pH dependent amyloid fibril formation (ThT staining) [1]: formed amyloid fibrils in buffers from pH 3-10

MVGGVV (Ac-MVGGVV-NH2) [A beta A4 35-40, Ac MVGGVV CONH2 in b76]
reduction of the paralytic symptoms of EAE (EAE mice; mice, 1 μg peptide daily, administered in 50% DMSO): therapeutic
amyloid fibril formation (ThT staining), L- versus D-amino acids [1]: equivalent, within error

HspB1: intact small heat shock protein
IL-2 level in serum [2]: smaller reductions
IL-6 level in serum [2]: dramatic reduction
IL-17 level in serum [2]: smaller reductions
TGF-β level in serum [2]: smaller reductions

LKVKVL [HspB5 89-94, hexamer of HspB5 residues 89-94]
reduction of the paralytic symptoms of EAE (EAE mice; [3]): effectively reduced the paralytic symptoms of EAE
pH dependent amyloid fibril formation (ThT staining) [1]: bound ThT only at pH 10

SSTNVG [amylin 28-33]
reduction of the paralytic symptoms of EAE (EAE mice; [3]): therapeutic

insulin A chain 12-17: hexamer of insulin A chain residues 12-17, acidic residue, sequence only in Table 1 image
molecular chaperone function (inhibition of insulin aggregation) (beta chain of insulin): molecular chaperones at pH 4, but not at pH 7.4
pH dependent amyloid fibril formation (ThT staining) [1]: effectively formed amyloid fibrils only in a range of pH 3 to pH 5

Cc1ccc2c(c1)sc(-c1ccc(N(C)C)cc1)[n+]2C.[Cl-] [ThT, thioflavin T, reference compound]
effect on the rate of insulin aggregation (control) (beta chain of insulin; 10 mM ThT): Neither the addition of 10 mM ThT nor ThT bound to Tau 623-628 affected the rate of insulin aggregation

VQIVYK [Tau 623-628]
IL-2 level in serum [2]: smaller reductions
IL-6 level in serum [2]: dramatic reduction
IL-17 level in serum [2]: smaller reductions
TGF-β level in serum [2]: smaller reductions
inhibition of insulin aggregation, L- versus D-amino acids (beta chain of insulin): inhibited insulin aggregation with very similar IC50 values
inhibition of insulin aggregation, L- versus D-amino acids (beta chain of insulin; listed as L-tau): inhibit insulin aggregation in a dose dependent manner with similar IC50 concentrations
molecular chaperone function (inhibition of insulin aggregation) (beta chain of insulin): inhibited insulin aggregation at pH 4 and pH 7.4
inhibition of insulin aggregation (beta chain of insulin): potent inhibitor at both pH 7.4 and pH 5
IC50, inhibition of insulin aggregation (beta chain of insulin; titration, Panel C of FIG. 4): approximately 20 mg
reduction of the paralytic symptoms of EAE (EAE mice; [3]): effectively reduced the paralytic symptoms of EAE
amyloid fibril formation (ThT staining), L- versus D-amino acids [1]: equivalent, within error
amyloid fibril formation (ThT staining), L- versus D-amino acids ([1]; listed as L-tau 623-628): similar
pH dependent amyloid fibril formation (ThT staining) [1]: formed amyloid fibrils in buffers from pH 3-10

amyloid beta A4 16-21: lysine-containing hexamer of amyloid beta A4 residues 16-21 (KLVFFA; Amyloid-beta protein 42; UniProt P05067 687-692, looked up, fragment)
pH dependent amyloid fibril formation (ThT staining) [1]: formed amyloid fibrils in buffers from pH 3-10

NKGAII [A beta A4 27-32]
reduction of the paralytic symptoms of EAE (EAE mice; [3]): therapeutic
pH dependent amyloid fibril formation (ThT staining) [1]: bound ThT only at pH 10

Ac VQIVYK CONH2 [D-tau 623-628]
inhibition of insulin aggregation, L- versus D-amino acids (beta chain of insulin): inhibit insulin aggregation in a dose dependent manner with similar IC50 concentrations
amyloid fibril formation (ThT staining), L- versus D-amino acids [1]: similar

CC(=O)N[C@@H](CO)C(=O)N[C@@H](CC(N)=O)C(=O)N[C@@H](CCC(N)=O)C(=O)N[C@@H](CC(N)=O)C(=O)N[C@@H](CC(N)=O)C(=O)N[C@@H](Cc1ccccc1)C(N)=O [prion 148-153, SNQNNF] (Ac-SNQNNF-NH2)
reduction of the paralytic symptoms of EAE (EAE mice; mouse, in vivo): therapeutic

insulin B chain 11-16: hexamer of insulin B chain residues 11-16, acidic residue, sequence only in Table 1 image
molecular chaperone function (inhibition of insulin aggregation) (beta chain of insulin): molecular chaperones at pH 4, but not at pH 7.4
reduction of the paralytic symptoms of EAE (EAE mice; [3]): did not statistically significantly reduce the symptoms of EAE
pH dependent amyloid fibril formation (ThT staining) [1]: effectively formed amyloid fibrils only in a range of pH 3 to pH 5

SVNDLV [HspB5 76-81, hexamer of HspB5 residues 76-81]
molecular chaperone function (inhibition of insulin aggregation) (beta chain of insulin): molecular chaperone only at pH4 and not in more basic solutions
inhibition of insulin aggregation (beta chain of insulin): only effective at pH 5
reduction of the paralytic symptoms of EAE (EAE mice; [3]): effectively reduced the paralytic symptoms of EAE
pH dependent amyloid fibril formation (ThT staining) [1]: effectively formed amyloid fibrils only in a range of pH 3 to pH 5

L-Aβ 37-42: L-amino acid hexapeptide of FIG. 6A; b76 calls it A beta 35-40 (Ac MVGGVV CONH2) (Ac-MVGGVV-NH2; UniProt P05067 706-711, looked up, fragment)
amyloid fibril formation (ThT staining), L- versus D-amino acids [1]: similar
